Measured values reported in US10927070B2, “Compositions and methods for treating cancer” (Cedars-Sinai Medical Center, priority 2016, dated 2021).
Entries after “also recorded” stand apart in the source; their conditions may differ.

Key:
[1] = molecular target: T1, purified recombinant OC2 HOX domain (Homo sapiens, UniProt O95948); assay: Surface plasmon resonance (SPR) binding of compound to immobilized OC2-HOX domain
T1 construct: made in house
T1 sequence (O95948 426-485 limits assumed): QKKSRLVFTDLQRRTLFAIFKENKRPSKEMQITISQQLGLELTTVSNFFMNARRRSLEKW
Experimental: FIG. 13 depicts in accordance with various embodiments of the invention, Compound CSRM617 binds to ONECUT2 in a dose-dependent manner. To measure binding features of CSRM617, the OC2-HOX domain was recombinantly produced. Purified OC2-HOX binding domain was next immobilized on a HisCap sensor chip and CSRM617 was analyzed at serial doubling concentrations maximized at 100 μM.
FIG. 25A-FIG. 25C depict in accordance with various embodiments of the invention, FIG. 25A: (Left panel) representative sensorgram showing dose-dependent OC2-Compound CSRM617 interaction measured by surface plasmon resonance (SPR). Real-time binding was quantified by immobilizing biotinylated OC2 protein on the streptavidin biosensor with varying concentrations of Compound CSRM617 1.56-100 μm). (Right panel) OC2 binding to the experimentally determined OC2 binding site on the PEG10 promoter assayed by SPR. FIG. 25B: suppression of PEG10 protein expression in 22Rv1 tumors. FIG. 25C: suppression of PEG10 protein expression in 22Rv1 tumors.
(§1) To assess whether OC2 might be inhibited with a small molecule, we developed a structural model of OC2 binding to DNA using homology modeling, and conducted a virtual screen of a chemical library consisting of […] compounds. 15 compounds were selected for biological activity testing using in vitro assays. One compound, compound CSRM617, was deemed to be biologically active and was selected for further study. […] To evaluate the selectivity of Compound CSRM617 for genes regulated by OC2, we generated gene expression microarray data from 22Rv1 cells treated with Compound CSRM617 for 4, 6 and 16 h. […] As described above, we identified PEG10 as a gene directly regulated by OC2 binding to the PEG10 promoter. […] The OC2 HOX fragment bound with high affinity (Kd=1 nM) to a DNA probe corresponding to the experimentally determined OC2 binding motif in the PEG10 promoter (FIG. 25A, right panel).

22RV1 = assay: Cell-Titer GLO viability / proliferation in 22RV1; format: cell-based, human
Experimental: (§2) ACTB and GAPDH expression levels were used for normalization. […] Cells were seeded in 96-well plates at 500 cells per well in a total volume of 100 ul media containing 10% FBS. Serially diluted compound CSRM617 was added to the cells 24 h later. After 48 h incubation, cell viability was assessed by Cell-Titer GLO (Promega). The values were normalized and IC50 was calculated using GraphPad Prism software. […] RWPE-1 is a benign prostate cell line.

C4-2 = assay: Cell-Titer GLO viability / proliferation in C4-2; format: cell-based, human
Experimental: as §2

LNCaP = assay: Cell proliferation in vitro in LNCaP; format: cell-based, human
Experimental: as §2

[2] = test system: human prostate cancer cell lines; assay: Growth, apoptosis and IC50 across prostate cell lines versus OC2 expression; format: cell-based; conditions: PC cell lines that express medium to high levels of OC2
Experimental: as §2, §1

[3] = test system: 22RV1 prostate cancer cells; assay: Apoptosis induction by cleaved Caspase-3 and PARP in 22RV1; format: cell-based, human
Text: GAPDH served as a loading control.

OC2 target genes = assay: Gene expression microarray and GSEA of OC2 target genes in 22Rv1; format: cell-based, human; conditions: 10 μM, 4, 6 and 16 h
Experimental: FIG. 14A-FIG. 14E depict in accordance with various embodiments of the invention, Compound CSRM617 perturbs OC2-regulated genes and suppresses 22Rv1 tumor growth in mice. To evaluate the specificity of CSRM617 for genes regulated by OC2, we generated gene expression microarray data from 22Rv1 cells treated with the compound at a concentration of 10 μM for 4, 6 and 16 h.
as §1

PEG10 mRNA = PEG10 mRNA expression in 22Rv1 (microarray); format: cell-based, human; conditions: 10 μM, 4, 6 and 16 h
Experimental: FIG. 16A-FIG. 16C depict in accordance with various embodiments of the invention, that OC2 activates PEG10, a driver of transdifferentiation from adenocarcinoma to neuroendocrine cancer. […] FIG. 16C: we have generated gene expression microarray data from 22Rv1 cells treated with the compound at a concentration of 10 μM for 4, 6 and 16 h. […] By inhibiting OC2 with compound CSRM617 the expression levels of the NE driver PEG10 are reduced.
as §1

22Rv1 xenografts = assay: Subcutaneous 22Rv1 xenograft growth in mice; format: in vivo; conditions: established 22Rv1 xenografts; 50 mg/Kg/d; 50 mg/kg/day
[4] = Tolerability in treated mice (body weight, feeding, behavior); format: in vivo; conditions: 50 mg/Kg/d
Experimental: (§3) To determine whether Compound CSRM617 is effective against CRPC metastases, 22Rv1 cells were injected intracardially in SCID mice, and the animals were subsequently treated with the above dose of the compound for several weeks. […] To test for evidence of bioactivity of Compound CSRM617 in situ, PEG10 protein levels were measured using IHC followed by digital imaging in adrenal gland tumors.

22Rv1 metastases = assay: 22Rv1 intracardiac injection metastasis model; format: in vivo, SCID mice; conditions: 50 mg/kg daily; 4 w after intracardiac injection
Experimental: FIG. 15 depicts in accordance with various embodiments of the invention, Compound CSRM617 inhibits metastasis. 22Rv1-luciferase labeled cells were injected intracardially and mice were randomized (n=7 per group) to receive vehicle or 50 mg/kg^−1 CSRM617, daily. BLI images of mice bearing metastatic tumors 4 w after the injection (left) and graphical representation of normalized BLI signals (right). Mean±SD (n=7 per group) is shown; **P<0.01.
as §3

PEG10 protein = PEG10 protein by IHC and digital imaging in tumors of treated mice; format: in vivo; conditions: adrenal gland tumors; IHC
Experimental: as §3

22Rv1 cells = assay: CellTiter-Glo cell viability of CSRM617 derivatives in 22Rv1; format: cell-based, human; conditions: for potency (IC50) compared with compound CSRM617: 100 μM to 0.2 μM, 48 hours; for cell viability: 48 hours post treatment, CellTiter-Glo
Experimental: FIG. 17A: 22Rv1 cells were plated at a density of 1000 cells per well, in triplicate, in a 96 well plate. The next day cells were exposed to compound CSRM617, several derivatives or vehicle (1% DMSO) at a concentration of 25 μM. Viability was measured 48 hours post treatment using CellTiter-Glo Luminescent Cell Viability Assay (Promega). FIG. 17B: 22Rv1 cells were plated at a density of 1000 cells per well, in triplicate, in a 96 well plate. The next day, TO reading was collected and cells were exposed to compound CSRM617, the derivatives or vehicle (1% DMSO) at 2-fold concentration ranging from 100 μM to 0.2 μM. Viability was measured 48 hours post treatment using CellTiter-Glo Luminescent Cell Viability Assay (Promega).

[5] = Solubility relative to CSRM617; format: physicochemical

Row | SMILES | direct binding to OC2 [1] | potency (IC50) compared with compound CSRM617 (22Rv1 cells) | solubility compared with compound CSRM617 [5] | cell viability (22Rv1 cells) | also measured
1 | N[C@@H](CO)C(=O)N/N=C/c1ccc(O)c(O)c1O [CSRM617] | binds directly to OC2 | – | – | – | Kd ([1]; SPR, serial doubling concentrations up to 100 μM): 7.43 µM; sensitivity (IC50) to compound (22RV1; 22RV1, 48 h incubation): highest sensitivity; cell proliferation in vitro (22RV1; 22Rv1): inhibited cell proliferation; cell proliferation in vitro (C4-2): inhibited cell proliferation; sensitivity (IC50) to compound (C4-2; 48 h incubation): highest sensitivity; cell proliferation in vitro (LNCaP): inhibited cell proliferation; apoptosis [2]: induced apoptosis; cell growth [2]: inhibited cell growth; apoptosis (cleaved Caspase-3 and PARP) [3]: induces apoptosis; perturbation of OC2 target genes (GSEA) (OC2 target genes): significant perturbation of OC2 target genes; PEG10 mRNA expression (PEG10 mRNA): downregulated in a time-dependent manner; subcutaneous tumor growth (22Rv1 xenografts): reduces tumor growth; also recorded: inhibited subcutaneous growth; body weight [4]: did not affect body weight; feeding patterns or behavior [4]: did not affect; onset and growth of diffuse metastases (BLI) (22Rv1 metastases): reduces significantly the onset and growth of diffuse metastases; also recorded: inhibited onset and growth of diffuse metastases; PEG10 protein levels in tumors (PEG10 protein): significantly down-regulated
2 | N[C@@H](CO)C(=O)NNCc1ccc(O)c(O)c1O [Compound 122] | directly bind OC2 | comparable activity | improved solubility | reduces cell viability | –
3 | NC(=O)C1CCCCN1C(=O)NCCc1ccc(O)c(O)c1O (centres unmarked) [Compound 123] | directly bind OC2 | comparable activity | improved solubility | reduces cell viability | –
4 | O=C(CNC(=O)Cc1ccc(O)c(O)c1O)NO [Compound 843] | directly bind OC2 | comparable activity | improved solubility | reduces cell viability | –

Continued, in another order:

Row | direct binding to OC2 [1] | potency (IC50) compared with compound CSRM617 (22Rv1 cells) | solubility compared with compound CSRM617 [5] | SMILES | cell viability (22Rv1 cells) | also measured
5 | – | comparable activity | improved solubility | CC(=O)NCCC(=O)NCCc1ccc(O)c(O)c1O [Compound 844] | reduces cell viability | –
6 | – | comparable activity | improved solubility | O=C1CCC(C(=O)NCCc2ccc(O)c(O)c2O)CN1 (centres unmarked) [Compound 848] | reduces cell viability | –
